Results taken from patent US20190185479A1, “BICYCLIC NITROGENATED HETEROCYCLIC COMPOUND” (MITSUBISHI TANABE PHARMA CORPORATION, priority 2016, published 2019).

How the values were obtained:
Format in all cases: biochemical
Human PDE7B (hPDE7B) = molecular target: T1, Human PDE7B (hPDE7B) (Homo sapiens, UniProt Q9NP56); assay: Measurement of PDE7 inhibitory activity (Experimental Example 1; residual cAMP, LANCE Ultra cAMP TR-FRET); conditions: cAMP 3 nmol/L, room temperature 60 minutes
T1 construct: made in house; host or cells: COS-7 cells
Procedure, shortened: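 hPDE7B from transfected COS-7 cells reacted with 3 nmol/L cAMP (final) and compound (2% DMSO) in 50 mmol/L Tris-HCl pH 7.5, 1 mmol/L MgCl2, 0.1% BSA, 0.5 mmol/L DTT, 60 min at room temperature. Reaction stopped with IBMX; residual cAMP measured by TR-FRET. Inhibition scaled between no-compound and no-enzyme controls.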

hPDE3A = molecular target: T2, hPDE3A (Homo sapiens, UniProt Q14432); assay: PDE7 selectivity test (Ki value), Experimental Example 2: hPDE3A; conditions: Ki from IC50 by Cheng-Prusoff, read-out: PDE inhibition constant Ki, PDE3
T2 construct: purchased SB Drug Discovery
Procedure: (§1) hPDE1A, hPDE2A, hPDE3A, hPDE4D, hPDE5A, and hPDE8B were purchased from SB Drug Discovery. hPDE7B was isolated by the same method as [Method for preparing samples 1], and hPDE9A, hPDE10A, and hPDE11A were isolated by the same method as hPDE7B, i.e., isolated from COS-7 cells transfected with plasmids encoding each PDE. PDE6 was purified and isolated from bovine retina (bovine PDE6).
(§2) Prior to the calculation of Ki value, Km value of each PDE against cAMP or cGMP was calculated. Each PDE diluted with an assay buffer so that it would have an appropriate enzyme activity, and six or more concentrations of cAMP or cGMP were reacted at room temperature for 60 minutes. Regarding PDE using cAMP as a substrate, PDELight (trademark) HTS cAMP phosphodiesterase Kit (Lonza) was used to measure a degradation product, 5′-AMP. Also, regarding PDE using cGMP as a substrate, […] of perchloric acid was added to the mixture to stop the reaction, and the resulting mixture was subjected to LC-MS/MS to measure the residual cGMP concentration. The amount of degraded substrate in each substrate concentration was calculated, the concentration of the added substrate was plotted on the horizontal axis, the amount of degraded substrate was plotted on the vertical axis, and Km value was calculated by non-linear regression on the basis of Michaelis-Menten equation. Km value (substrate) of each PDE was hPDE1A: 4.3 (cGMP), hPDE2A: 36 (cAMP), hPDE3A: 0.11 (cAMP), hPDE4D: 0.90 (cAMP), hPDE5A: 3.9 (cGMP), bovine PDE6:9.8 (cGMP), hPDE7B: 0.015 (cAMP), hPDE8B: 0.63 (cAMP), hPDE9A: 0.0037 (cGMP), hPDE10A: 0.051 (cAMP), and hPDE11A: 1.4 (cAMP) μmol/L, respectively.
(§3) Next, PDE inhibition assay of a compound was carried out using each PDE. The PDE inhibition assay was basically carried out by the same enzyme reaction method as [Assay procedure 1], and the degraded amount of cAMP or cGMP was measured by the same method as [Assay procedure 2]. In the assay, a concentration approximated to Km value of each PDE against cAMP or cGMP was used as a substrate concentration. Meanwhile, regarding hPDE5A, hPDE8B, and hPDE9A, IMAP (trademark) FP Phosphodiesterase Evaluation Assay Kit (Molecular Devices) was used to measure the degradation of FAM-cAMP or FAM-cGMP by fluorescence depolarization technique.
(§4) Each compound was evaluated at six or more concentrations with common ratio 10. Each inhibition rate was calculated according to <Method for data calculation 1>, and then each IC50 value was calculated by sigmoid regression. The resulting IC50 value was used in the following Cheng-Prusoff equation to calculate each Ki value. Ki=IC50/(1+[S]/Km), wherein [S] represents a substrate concentration used

hPDE7B = molecular target: T3, hPDE7B (Homo sapiens, UniProt Q9NP56); assay: PDE7 selectivity test (Ki value), Experimental Example 2: hPDE7B; conditions: Ki from IC50 by Cheng-Prusoff, read-out: PDE inhibition constant Ki, PDE7
T3 construct: made in house; host or cells: COS-7 cells
Procedure: as §1, §2, §3, §4

hPDE8B = molecular target: T4, hPDE8B (Homo sapiens, UniProt O95263); assay: PDE7 selectivity test (Ki value), Experimental Example 2: hPDE8B; conditions: Ki from IC50 by Cheng-Prusoff, read-out: PDE inhibition constant Ki, PDE8
T4 construct: purchased SB Drug Discovery
Procedure: as §1, §2, §3, §4

hPDE10A [1] = molecular target: T5, hPDE10A (Homo sapiens, UniProt Q9Y233); assay: PDE7 selectivity test (Ki value), Experimental Example 2: hPDE10A; conditions: Ki from IC50 by Cheng-Prusoff, read-out: PDE inhibition constant Ki, PDE10
Procedure: as §1, §2, §3, §4

hPDE4D = molecular target: T6, hPDE4D (Homo sapiens, UniProt Q08499); assay: PDE4 inhibition assay (IC50), Experimental Example 3; conditions: hPDE4D; read-out: PDE inhibition assay IC50, PDE4
T6 construct: purchased SB Drug Discovery
Procedure, shortened: (§5)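 Recombinant human enzymes incubated with compound and 3 nmol/L cAMP (final) in Tris-HCl pH 7.5 buffer with MgCl2, BSA, DTT, 2% DMSO final, 60 min at room temperature. Residual cAMP measured by TR-FRET (LANCE Ultra), reaction stopped with 0.5 mmol/L IBMX. IC50 from inhibition relative to no-compound (0%) and no-enzyme (100%) controls.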

hPDE10A [2] = molecular target: T5, hPDE10A; assay: PDE10 inhibition assay (IC50), Experimental Example 3; conditions: for IC50: hPDE10A, read-out: PDE inhibition assay IC50, PDE10; for inhibition at 10 µM: at 10 μmol/L, read-out: inhibition rate (%) at prescribed concentration, PDE10
Procedure, shortened: as §5

T2 sequence (Q14432 whole entry): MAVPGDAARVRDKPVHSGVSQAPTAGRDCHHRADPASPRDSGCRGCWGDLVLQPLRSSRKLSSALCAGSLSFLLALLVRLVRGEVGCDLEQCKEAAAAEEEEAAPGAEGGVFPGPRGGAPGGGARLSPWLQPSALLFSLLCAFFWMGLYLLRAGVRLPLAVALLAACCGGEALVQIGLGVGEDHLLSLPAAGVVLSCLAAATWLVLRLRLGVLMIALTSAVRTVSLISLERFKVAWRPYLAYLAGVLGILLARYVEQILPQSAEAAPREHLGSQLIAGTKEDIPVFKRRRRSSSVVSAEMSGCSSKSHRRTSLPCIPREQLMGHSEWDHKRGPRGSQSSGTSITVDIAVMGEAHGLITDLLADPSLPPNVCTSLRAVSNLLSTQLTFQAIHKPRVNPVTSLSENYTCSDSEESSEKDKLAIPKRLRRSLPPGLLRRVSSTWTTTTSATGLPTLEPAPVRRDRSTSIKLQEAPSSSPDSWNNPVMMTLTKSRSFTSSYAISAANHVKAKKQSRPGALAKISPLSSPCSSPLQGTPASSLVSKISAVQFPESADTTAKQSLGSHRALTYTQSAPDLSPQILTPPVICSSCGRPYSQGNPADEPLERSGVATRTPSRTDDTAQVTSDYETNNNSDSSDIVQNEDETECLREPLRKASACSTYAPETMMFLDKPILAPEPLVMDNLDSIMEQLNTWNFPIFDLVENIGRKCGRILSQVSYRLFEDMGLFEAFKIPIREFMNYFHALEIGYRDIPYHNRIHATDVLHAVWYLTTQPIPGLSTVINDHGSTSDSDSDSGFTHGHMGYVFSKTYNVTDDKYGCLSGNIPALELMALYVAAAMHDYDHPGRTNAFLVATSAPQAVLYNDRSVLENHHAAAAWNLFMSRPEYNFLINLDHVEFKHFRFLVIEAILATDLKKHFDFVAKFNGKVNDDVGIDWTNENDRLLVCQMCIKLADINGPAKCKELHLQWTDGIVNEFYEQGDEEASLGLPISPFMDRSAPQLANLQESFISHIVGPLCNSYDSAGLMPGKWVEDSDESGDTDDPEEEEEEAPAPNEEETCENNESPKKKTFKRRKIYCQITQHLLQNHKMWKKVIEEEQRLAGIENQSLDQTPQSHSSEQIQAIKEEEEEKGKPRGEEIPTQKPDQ
T1 sequence (Q9NP56 whole entry): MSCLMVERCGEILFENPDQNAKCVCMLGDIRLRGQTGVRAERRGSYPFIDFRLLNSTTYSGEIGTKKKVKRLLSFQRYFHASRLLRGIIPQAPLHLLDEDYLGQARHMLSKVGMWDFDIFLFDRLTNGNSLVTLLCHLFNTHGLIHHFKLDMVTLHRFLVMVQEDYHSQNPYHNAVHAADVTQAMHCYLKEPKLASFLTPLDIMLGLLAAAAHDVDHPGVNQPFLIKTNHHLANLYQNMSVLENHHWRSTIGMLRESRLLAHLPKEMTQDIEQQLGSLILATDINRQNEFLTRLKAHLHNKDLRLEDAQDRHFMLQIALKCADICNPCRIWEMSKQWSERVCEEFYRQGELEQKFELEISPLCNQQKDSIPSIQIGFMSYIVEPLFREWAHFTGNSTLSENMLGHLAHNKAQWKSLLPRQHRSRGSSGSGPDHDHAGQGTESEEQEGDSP
T3 sequence (Q9NP56 whole entry): as above
T4 sequence (O95263 whole entry): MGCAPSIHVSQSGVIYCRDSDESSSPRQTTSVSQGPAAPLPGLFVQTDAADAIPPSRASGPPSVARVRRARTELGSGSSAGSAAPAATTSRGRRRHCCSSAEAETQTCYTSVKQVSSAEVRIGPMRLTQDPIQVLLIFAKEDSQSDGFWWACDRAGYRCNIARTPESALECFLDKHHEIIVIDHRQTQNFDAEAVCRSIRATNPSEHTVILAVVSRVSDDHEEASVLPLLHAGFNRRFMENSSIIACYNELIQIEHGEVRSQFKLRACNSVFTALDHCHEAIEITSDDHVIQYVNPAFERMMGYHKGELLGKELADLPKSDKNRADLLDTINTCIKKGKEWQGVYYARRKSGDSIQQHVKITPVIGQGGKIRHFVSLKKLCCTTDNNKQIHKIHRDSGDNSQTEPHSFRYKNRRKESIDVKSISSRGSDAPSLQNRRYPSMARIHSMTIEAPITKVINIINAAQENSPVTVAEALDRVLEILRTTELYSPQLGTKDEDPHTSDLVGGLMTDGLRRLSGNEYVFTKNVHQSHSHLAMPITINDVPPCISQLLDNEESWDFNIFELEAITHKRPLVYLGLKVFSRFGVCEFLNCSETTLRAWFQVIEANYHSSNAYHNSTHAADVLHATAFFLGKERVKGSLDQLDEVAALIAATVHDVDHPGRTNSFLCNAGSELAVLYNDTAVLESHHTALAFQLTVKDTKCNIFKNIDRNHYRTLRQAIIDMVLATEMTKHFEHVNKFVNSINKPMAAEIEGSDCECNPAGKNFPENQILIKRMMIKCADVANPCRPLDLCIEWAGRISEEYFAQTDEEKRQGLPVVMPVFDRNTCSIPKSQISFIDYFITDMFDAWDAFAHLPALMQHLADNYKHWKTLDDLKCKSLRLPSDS
T6 sequence (Q08499 whole entry): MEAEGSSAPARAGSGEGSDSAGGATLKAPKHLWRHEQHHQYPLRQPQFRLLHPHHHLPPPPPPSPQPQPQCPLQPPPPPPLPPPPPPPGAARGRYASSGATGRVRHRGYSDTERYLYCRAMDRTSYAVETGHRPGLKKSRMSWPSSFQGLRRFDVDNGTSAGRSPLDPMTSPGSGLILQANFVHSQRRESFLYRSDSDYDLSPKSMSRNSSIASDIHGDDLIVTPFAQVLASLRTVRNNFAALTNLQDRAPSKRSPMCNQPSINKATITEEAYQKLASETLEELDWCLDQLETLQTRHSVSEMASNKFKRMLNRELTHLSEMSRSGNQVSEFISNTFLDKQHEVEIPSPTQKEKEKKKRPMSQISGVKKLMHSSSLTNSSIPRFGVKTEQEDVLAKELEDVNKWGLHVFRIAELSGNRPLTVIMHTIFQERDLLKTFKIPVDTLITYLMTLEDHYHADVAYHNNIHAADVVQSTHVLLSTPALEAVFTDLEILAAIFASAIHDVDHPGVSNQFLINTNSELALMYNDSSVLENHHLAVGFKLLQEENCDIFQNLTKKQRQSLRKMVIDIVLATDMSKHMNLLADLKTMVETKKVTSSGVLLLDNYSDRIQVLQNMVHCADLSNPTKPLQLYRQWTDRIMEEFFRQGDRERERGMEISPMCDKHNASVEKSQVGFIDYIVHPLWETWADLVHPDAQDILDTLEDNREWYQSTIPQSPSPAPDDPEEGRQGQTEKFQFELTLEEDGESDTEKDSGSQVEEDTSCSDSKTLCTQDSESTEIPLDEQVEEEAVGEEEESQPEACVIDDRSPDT
T5 sequence (Q9Y233 290-1055 limits assumed): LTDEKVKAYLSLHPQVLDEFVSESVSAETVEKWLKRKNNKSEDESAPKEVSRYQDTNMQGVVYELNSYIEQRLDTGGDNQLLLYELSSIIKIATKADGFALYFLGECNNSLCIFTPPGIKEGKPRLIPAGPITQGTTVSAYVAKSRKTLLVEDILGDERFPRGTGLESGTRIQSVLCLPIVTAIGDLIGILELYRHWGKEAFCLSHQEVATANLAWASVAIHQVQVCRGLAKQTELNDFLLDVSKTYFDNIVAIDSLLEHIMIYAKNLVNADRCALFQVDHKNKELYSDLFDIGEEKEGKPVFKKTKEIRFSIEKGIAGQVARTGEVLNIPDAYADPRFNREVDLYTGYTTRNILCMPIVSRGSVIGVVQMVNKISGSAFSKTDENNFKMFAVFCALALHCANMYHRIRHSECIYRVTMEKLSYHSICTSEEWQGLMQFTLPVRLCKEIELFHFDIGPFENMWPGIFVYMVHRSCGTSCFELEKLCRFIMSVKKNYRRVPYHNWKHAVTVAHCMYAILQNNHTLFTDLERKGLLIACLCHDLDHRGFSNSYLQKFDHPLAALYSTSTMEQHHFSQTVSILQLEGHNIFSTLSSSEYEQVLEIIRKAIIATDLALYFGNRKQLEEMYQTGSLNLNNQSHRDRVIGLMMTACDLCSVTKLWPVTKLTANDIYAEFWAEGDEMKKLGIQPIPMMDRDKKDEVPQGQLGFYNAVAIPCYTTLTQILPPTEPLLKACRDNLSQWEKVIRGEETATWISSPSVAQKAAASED

| SMILES | IC50 (Human PDE7B (hPDE7B)) | Ki (hPDE3A) | Ki (hPDE7B) | Ki (hPDE8B) | Ki (hPDE10A [1]) | IC50 (hPDE4D) | IC50 (hPDE10A [2]) | inhibition at 10 µM (hPDE10A [2]) |
| --- | --- | --- | --- | --- | --- | --- | --- | --- |
| Cc1nc(N)c2nnn(C3CCCCC3)c2n1 [Example 4] | 50 nM | > 5200 nM | 27 nM | 85 nM | 1100 nM | 540 nM | 1750 nM | – |
| C[C@@H]1CCC[C@H](c2nnc3c(N)nccn23)C1 [Example 204, 3-[(1S,3R)-3-methylcyclohexyl][1,2,4]triazolo[4,3-a]pyrazin-8-amine] | < 10 nM | 43000 nM | 3 nM | 1400 nM | 2600 nM | 1510 nM | 2930 nM | – |
| Nc1nccn2c(C3CCCCC3)nnc12 [Example 141, 3-cyclohexyl[1,2,4]triazolo[4,3-a]pyrazin-8-amine] | 10 nM | > 5200 nM | 31 nM | 1400 nM | > 5100 nM | 6220 nM | – | 30% |
| Nc1ncnc2c1nnn2C1CCCCC1 [Example 3, 3-cyclohexyl-3H-[1,2,3]triazolo[4,5-d]pyrimidin-7-amine] | 50 nM | > 52000 nM | 31 nM | 770 nM | 12000 nM | 7820 nM | – | 27% |
| CC1CCCCC1n1nnc2c(N)ncnc21 (single isomer, unassigned) [Example 191, 3-(cis-2-methylcyclohexyl)-3H-[1,2,3]triazolo[4,5-d]pyrimidin-7-amine] | < 10 nM | > 52000 nM | 12 nM | 5300 nM | 2400 nM | 9200 nM | 3490 nM | – |
